In BindingDB's records for doi:10.1074/jbc.M409068200 (Genentech, 2005):

Assays:
Test in all cases: Serine Protease Inhibition Assay
Settings in all cases: pH 7.8; 22 °C
Plasma kallikrein = Plasma kallikrein (Homo sapiens, UniProt P03952)
Protocol: (§1) The enzyme reactions were initiated by the addition of substrate, and the color developed from the release of p-nitroanilide from each chromogenic substrate was monitored continuously for 5 min at 405 nm on a microtiter plate reader. […] The apparent Ki values were then calculated according to the Cheng-Prusoff equation: Ki = IC50/1 + [S]/Km.

Coagulation factor X = Coagulation factor X (Homo sapiens, UniProt P00742)
Protocol: as §1

Prothrombin = Prothrombin (Homo sapiens, UniProt P00734)
Protocol: as §1

Serine protease 1 = biological target: T1, Serine protease 1 (Bos taurus, UniProt P00760)
T1 sequence (P00760 whole entry): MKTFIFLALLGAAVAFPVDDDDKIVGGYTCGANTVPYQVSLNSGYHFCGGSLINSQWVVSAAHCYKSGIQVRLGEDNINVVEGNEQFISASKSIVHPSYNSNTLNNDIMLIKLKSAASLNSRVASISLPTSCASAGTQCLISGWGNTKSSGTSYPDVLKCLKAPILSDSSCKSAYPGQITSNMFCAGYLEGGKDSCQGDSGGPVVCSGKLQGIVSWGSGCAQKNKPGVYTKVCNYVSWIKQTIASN
Protocol: as §1

Plasminogen = Plasminogen (Homo sapiens, UniProt P00747)
Protocol: as §1

[1] = biological target: Tissue-type plasminogen activator (Homo sapiens, UniProt P00750)
Protocol: as §1

[2] = biological target: Urokinase-type plasminogen activator (Homo sapiens, UniProt P00749)
Protocol: as §1

[3] = biological target: Vitamin K-dependent protein C (Homo sapiens, UniProt P04070)
Protocol: as §1

Chain of Coagulation factor X (P00742 41-179 limits assumed): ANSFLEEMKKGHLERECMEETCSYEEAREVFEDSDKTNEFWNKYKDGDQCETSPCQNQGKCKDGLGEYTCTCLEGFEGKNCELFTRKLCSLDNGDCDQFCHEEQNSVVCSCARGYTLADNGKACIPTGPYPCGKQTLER
Chain of Coagulation factor X (P00742 235-488 limits assumed): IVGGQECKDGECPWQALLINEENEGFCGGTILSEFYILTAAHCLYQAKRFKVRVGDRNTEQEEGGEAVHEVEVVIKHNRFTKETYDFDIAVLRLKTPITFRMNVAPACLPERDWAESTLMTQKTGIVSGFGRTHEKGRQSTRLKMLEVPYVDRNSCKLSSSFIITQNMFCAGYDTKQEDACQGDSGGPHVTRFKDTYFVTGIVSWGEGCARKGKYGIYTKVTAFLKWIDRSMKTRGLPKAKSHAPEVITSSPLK
Chain of Plasma kallikrein (P03952 20-390 limits assumed): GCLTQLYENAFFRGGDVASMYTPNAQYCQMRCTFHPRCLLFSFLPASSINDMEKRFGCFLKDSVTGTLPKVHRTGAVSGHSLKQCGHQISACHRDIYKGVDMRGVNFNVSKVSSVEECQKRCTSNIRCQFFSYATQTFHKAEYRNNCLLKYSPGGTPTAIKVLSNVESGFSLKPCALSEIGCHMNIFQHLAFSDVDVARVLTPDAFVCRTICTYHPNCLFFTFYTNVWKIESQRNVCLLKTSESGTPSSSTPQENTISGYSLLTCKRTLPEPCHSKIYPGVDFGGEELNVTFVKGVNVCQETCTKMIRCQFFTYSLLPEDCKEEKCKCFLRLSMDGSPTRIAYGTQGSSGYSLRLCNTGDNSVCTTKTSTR
Chain of Plasma kallikrein (P03952 391-638 limits assumed): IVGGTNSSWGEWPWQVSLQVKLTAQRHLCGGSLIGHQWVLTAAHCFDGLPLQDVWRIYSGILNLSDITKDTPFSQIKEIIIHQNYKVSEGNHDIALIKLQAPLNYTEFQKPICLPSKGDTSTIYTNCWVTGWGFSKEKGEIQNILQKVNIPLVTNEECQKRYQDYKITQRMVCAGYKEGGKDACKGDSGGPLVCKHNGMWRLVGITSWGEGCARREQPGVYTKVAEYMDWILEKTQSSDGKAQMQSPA
Chain of Vitamin K-dependent protein C (P04070 43-197 limits assumed): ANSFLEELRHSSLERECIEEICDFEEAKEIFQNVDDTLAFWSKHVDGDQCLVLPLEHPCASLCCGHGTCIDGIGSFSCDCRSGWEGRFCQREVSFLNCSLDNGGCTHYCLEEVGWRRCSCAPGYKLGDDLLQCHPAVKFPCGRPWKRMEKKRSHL
Chain of Vitamin K-dependent protein C (P04070 212-461 limits assumed): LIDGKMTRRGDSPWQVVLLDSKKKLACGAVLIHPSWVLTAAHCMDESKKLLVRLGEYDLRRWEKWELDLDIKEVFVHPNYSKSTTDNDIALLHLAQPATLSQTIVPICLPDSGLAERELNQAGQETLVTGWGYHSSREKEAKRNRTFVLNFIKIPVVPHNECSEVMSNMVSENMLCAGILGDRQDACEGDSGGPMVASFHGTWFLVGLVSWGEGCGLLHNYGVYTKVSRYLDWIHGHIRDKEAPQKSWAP
Chain of Plasminogen (P00747 97-580 limits assumed): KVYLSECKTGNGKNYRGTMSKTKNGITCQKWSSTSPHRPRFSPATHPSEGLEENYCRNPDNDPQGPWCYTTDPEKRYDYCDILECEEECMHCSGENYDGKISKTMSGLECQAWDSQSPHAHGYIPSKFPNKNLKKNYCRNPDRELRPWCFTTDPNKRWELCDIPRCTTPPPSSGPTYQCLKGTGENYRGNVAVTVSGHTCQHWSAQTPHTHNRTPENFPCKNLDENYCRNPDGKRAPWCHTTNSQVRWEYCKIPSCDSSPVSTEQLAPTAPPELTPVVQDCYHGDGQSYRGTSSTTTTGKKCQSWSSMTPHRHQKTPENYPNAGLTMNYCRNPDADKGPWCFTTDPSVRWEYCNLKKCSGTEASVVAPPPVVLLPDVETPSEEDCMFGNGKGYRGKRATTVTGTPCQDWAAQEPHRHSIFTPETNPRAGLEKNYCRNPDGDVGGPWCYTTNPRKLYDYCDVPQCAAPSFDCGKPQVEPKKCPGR
Chain of Plasminogen (P00747 581-810 limits assumed): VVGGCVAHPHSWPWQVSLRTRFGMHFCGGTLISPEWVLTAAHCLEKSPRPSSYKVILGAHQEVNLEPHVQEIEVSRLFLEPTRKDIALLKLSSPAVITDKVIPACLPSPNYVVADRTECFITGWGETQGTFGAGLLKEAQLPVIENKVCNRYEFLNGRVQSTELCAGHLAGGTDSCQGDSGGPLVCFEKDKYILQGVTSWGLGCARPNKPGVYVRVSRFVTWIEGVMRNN
Chain of Tissue-type plasminogen activator (P00750 whole entry): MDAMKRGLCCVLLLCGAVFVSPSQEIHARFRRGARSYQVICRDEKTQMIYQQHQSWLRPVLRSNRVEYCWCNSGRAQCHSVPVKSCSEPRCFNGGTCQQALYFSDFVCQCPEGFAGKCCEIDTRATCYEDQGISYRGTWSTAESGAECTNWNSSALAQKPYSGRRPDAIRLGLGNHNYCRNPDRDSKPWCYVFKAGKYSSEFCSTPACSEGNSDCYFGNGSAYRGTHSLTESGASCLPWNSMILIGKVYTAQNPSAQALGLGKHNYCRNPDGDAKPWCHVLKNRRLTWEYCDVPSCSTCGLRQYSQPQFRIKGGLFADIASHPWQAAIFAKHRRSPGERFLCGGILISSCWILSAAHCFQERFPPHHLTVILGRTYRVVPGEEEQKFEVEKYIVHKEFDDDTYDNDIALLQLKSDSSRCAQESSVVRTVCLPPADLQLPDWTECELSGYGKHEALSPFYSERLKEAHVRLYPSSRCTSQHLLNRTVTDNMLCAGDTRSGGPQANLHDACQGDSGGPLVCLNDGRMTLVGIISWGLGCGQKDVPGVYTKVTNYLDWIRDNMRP

CCOc1cc(OCC)c(F)c([C@@H](Nc2ccc(C(=N)N)c(O)c2)C(=O)NS(=O)(=O)c2cccc(N)c2)c1 [(2R)-N-[(3-aminobenzene)sulfonyl]-2-[(4-carbamimidoyl-3-hydroxyphenyl)amino]-2-(3,5-diethoxy-2-fluorophenyl)acetamide] gave a Ki (Plasma kallikrein) of 0.114 µM, a Ki (Coagulation factor X) of over 3.5 µM and a Ki (Prothrombin) of 3.6 µM. The Ki (Serine protease 1) was 4 µM, the Ki (Plasminogen) was 1.2 µM and the Ki [1] was over 3.9 µM. The Ki [2] was over 3.4 µM and the Ki [3] was 0.087 µM.
